Measured values published in the kinase profiling compilation of Christmann-Franck et al. (2016).

Key:
Assay in all cases: KINOMEscan competition binding
Details in all cases: compound 10.0 µM
PIM1 (human) = PIM1 (human) (UniProt P11309)
TLK1 (human) = TLK1 (human) (UniProt Q9UKI8)
TGFBR2 (human) = TGFBR2 (human) (UniProt P37173)
[1] = test system: KIT (human), P10721 [V559D/V654A]
SRPK3 (human) = SRPK3 (human) (UniProt Q9UPE1)
MYLK3 (human) = MYLK3 (human) (UniProt Q32MK0)
MAP2K3 (human) = MAP2K3 (human) (UniProt P46734)
BMP2K (human) = BMP2K (human) (UniProt Q9NSY1)
MKNK2 (human) = MKNK2 (human) (UniProt Q9HBH9)
TTK (human) = TTK (human) (UniProt P33981)
BMPR1B (human) = BMPR1B (human) (UniProt O00238)
STK11 (human) = STK11 (human) (UniProt Q15831)
MAPK15 (human) = MAPK15 (human) (UniProt Q8TD08)
MAP4K2 (human) = MAP4K2 (human) (UniProt Q12851)
PHKG2 (human) = PHKG2 (human) (UniProt P15735)
Chain of PHKG2 (human) (P15735 whole entry, looked up): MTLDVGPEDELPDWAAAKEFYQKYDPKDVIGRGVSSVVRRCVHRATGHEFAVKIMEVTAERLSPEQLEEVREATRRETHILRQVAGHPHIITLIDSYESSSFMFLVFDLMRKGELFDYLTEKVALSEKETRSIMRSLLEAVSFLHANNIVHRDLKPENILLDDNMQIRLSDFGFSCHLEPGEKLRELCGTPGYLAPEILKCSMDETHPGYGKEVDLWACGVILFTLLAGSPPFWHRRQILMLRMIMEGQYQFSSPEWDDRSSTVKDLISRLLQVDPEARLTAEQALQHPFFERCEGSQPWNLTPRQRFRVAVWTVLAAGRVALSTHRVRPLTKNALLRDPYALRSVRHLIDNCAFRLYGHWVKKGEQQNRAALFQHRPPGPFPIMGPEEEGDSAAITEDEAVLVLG

CSNK2A1 (human) = CSNK2A1 (human) (UniProt P68400)
CLK4 (human) = CLK4 (human) (UniProt Q9HAZ1)
RIOK3 (human) = RIOK3 (human) (UniProt O14730)
MKNK1 (human) = MKNK1 (human) (UniProt Q9BUB5)
Chain of MKNK1 (human) (Q9BUB5 whole entry, looked up): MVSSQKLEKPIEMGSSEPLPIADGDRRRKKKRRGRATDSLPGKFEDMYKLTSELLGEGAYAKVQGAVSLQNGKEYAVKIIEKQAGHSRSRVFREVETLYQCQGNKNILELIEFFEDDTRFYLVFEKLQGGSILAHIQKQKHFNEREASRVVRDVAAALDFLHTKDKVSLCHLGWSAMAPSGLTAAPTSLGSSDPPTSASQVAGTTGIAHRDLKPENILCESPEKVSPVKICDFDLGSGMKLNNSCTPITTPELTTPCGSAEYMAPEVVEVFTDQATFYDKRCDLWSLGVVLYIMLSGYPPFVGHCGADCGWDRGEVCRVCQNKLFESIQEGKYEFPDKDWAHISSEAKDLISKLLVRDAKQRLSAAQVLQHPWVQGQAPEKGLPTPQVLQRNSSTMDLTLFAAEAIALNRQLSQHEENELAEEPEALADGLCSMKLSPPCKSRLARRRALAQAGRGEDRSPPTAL

DCLK3 (human) = DCLK3 (human) (UniProt Q9C098)
RPS6KA4 KD2 (human) = RPS6KA4 KD2 (human) (UniProt O75676)
MELK (human) = MELK (human) (UniProt Q14680)
[2] = test system: KIT (human), P10721 [V559D]
Chain of KIT (human), P10721 [V559D] (P10721 whole entry V559D, looked up): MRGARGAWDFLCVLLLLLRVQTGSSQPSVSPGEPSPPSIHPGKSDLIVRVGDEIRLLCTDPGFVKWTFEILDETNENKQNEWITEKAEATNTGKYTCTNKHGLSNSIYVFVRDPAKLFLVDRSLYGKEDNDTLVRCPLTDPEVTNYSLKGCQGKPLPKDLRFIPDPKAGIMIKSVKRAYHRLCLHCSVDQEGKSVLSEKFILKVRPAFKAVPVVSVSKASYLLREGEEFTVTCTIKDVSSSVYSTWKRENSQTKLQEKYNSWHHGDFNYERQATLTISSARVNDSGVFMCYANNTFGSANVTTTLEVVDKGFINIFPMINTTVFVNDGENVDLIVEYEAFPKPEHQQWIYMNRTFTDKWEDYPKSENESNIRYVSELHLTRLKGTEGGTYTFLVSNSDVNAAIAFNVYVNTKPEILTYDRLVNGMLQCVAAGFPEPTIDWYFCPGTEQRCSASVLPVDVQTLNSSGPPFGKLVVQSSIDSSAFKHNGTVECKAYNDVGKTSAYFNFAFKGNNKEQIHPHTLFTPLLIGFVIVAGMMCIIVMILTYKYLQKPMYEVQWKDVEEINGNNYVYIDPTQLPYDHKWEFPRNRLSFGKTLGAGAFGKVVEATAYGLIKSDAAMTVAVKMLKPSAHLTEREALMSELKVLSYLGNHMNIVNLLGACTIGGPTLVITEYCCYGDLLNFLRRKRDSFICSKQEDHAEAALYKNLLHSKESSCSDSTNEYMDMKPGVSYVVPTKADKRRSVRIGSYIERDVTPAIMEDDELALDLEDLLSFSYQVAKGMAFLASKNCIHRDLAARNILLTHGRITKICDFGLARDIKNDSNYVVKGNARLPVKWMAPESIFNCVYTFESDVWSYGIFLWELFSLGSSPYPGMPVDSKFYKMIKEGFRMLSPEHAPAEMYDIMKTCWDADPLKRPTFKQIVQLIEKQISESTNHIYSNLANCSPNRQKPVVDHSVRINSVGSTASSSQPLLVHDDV

NEK2 (human) = NEK2 (human) (UniProt P51955)
FLT3 (human) = FLT3 (human) (UniProt P36888)
Chain of FLT3 (human) (P36888 whole entry, looked up): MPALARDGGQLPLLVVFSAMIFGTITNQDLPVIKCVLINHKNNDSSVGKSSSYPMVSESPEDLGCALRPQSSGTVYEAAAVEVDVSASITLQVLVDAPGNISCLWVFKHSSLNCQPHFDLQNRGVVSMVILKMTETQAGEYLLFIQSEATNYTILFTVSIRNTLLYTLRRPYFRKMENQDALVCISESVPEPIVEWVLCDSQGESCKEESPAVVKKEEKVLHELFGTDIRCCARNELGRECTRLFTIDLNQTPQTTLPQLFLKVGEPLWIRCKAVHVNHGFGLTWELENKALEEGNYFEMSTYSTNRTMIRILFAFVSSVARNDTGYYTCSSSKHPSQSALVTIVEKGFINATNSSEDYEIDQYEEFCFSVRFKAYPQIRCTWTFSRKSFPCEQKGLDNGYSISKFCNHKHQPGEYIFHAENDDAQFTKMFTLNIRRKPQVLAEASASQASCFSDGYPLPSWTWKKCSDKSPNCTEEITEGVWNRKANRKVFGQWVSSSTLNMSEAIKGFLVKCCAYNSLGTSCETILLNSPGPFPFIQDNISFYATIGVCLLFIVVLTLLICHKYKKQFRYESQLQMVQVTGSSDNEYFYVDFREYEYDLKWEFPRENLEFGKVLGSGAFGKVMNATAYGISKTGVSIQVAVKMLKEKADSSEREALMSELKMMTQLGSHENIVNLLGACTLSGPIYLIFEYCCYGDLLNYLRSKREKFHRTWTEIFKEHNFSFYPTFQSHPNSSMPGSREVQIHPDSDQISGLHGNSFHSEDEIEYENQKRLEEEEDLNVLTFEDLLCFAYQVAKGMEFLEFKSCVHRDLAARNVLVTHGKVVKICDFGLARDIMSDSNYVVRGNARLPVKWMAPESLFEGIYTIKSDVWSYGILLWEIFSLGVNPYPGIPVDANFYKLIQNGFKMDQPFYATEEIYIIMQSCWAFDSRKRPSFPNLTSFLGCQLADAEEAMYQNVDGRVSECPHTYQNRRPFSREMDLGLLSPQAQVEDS

ACVR1 (human) = ACVR1 (human) (UniProt Q04771)
SRPK2 (human) = SRPK2 (human) (UniProt P78362)
Chain of SRPK2 (human) (P78362 whole entry, looked up): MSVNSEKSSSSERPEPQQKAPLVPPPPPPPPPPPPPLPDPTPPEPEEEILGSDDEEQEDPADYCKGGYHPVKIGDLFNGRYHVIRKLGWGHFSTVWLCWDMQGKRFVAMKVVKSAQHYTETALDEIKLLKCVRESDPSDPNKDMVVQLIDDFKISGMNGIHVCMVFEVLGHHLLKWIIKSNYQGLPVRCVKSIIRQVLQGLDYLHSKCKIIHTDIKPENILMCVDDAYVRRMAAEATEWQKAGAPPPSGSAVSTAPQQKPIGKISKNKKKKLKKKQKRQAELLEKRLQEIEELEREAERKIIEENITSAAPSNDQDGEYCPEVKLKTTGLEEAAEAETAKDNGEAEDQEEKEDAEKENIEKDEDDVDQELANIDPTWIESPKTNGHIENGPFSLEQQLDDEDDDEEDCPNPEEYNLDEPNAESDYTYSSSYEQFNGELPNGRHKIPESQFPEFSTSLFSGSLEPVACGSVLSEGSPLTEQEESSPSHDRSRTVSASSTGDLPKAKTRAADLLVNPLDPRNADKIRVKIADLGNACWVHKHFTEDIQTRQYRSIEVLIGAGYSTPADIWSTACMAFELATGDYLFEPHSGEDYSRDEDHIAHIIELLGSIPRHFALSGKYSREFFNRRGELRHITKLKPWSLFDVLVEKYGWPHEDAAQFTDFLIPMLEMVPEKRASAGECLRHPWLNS

AURKB (human) = AURKB (human) (UniProt Q96GD4)
MAPK8 (human) = MAPK8 (human) (UniProt P45983)
STK24 (human) = STK24 (human) (UniProt Q9Y6E0)
TNIK (human) = TNIK (human) (UniProt Q9UKE5)
PIM2 (human) = PIM2 (human) (UniProt Q9P1W9)
CSNK2A2 (human) = CSNK2A2 (human) (UniProt P19784)
CIT (human) = CIT (human) (UniProt O14578)
RIOK2 (human) = RIOK2 (human) (UniProt Q9BVS4)
CDK7 (human) = CDK7 (human) (UniProt P50613)
Chain of CDK7 (human) (P50613 whole entry, looked up): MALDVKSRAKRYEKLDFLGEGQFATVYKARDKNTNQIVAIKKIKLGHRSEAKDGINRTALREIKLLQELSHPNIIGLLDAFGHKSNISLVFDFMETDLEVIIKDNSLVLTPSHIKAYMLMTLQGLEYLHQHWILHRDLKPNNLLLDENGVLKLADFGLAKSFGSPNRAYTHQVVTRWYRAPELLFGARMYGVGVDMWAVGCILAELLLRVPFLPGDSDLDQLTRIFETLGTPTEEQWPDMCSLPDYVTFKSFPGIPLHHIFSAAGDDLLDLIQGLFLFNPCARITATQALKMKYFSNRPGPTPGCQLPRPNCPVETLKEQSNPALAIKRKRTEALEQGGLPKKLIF

KIT (human) = KIT (human) (UniProt P10721)
Chain of KIT (human) (P10721 whole entry, looked up): as the sequence (P10721 whole entry V559D, looked up) above, with D559V counted along it

[3] = test system: EIF2AK4 KD2 (human), Q9P2K8 [S808G]
ACVR2A (human) = ACVR2A (human) (UniProt P27037)
Chain of ACVR2A (human) (P27037 whole entry, looked up): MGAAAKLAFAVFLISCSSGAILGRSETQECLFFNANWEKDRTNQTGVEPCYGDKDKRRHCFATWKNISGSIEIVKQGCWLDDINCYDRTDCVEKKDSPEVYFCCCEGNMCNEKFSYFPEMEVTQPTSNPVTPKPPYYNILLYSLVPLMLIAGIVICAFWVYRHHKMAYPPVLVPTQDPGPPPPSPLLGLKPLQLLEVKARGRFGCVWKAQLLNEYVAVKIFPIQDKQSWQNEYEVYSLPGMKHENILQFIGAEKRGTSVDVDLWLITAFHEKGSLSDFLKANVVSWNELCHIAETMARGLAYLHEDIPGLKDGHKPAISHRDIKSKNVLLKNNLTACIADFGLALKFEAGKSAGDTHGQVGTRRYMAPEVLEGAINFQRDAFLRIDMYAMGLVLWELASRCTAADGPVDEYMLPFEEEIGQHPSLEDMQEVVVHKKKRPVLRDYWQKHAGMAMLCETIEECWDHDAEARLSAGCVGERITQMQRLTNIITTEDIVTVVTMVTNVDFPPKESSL

GAK (human) = GAK (human) (UniProt O14976)
DAPK1 (human) = DAPK1 (human) (UniProt P53355)
TAOK3 (human) = TAOK3 (human) (UniProt Q9H2K8)

Chain of KIT (human), P10721 [V559D/V654A] (P10721 whole entry V559D/V654A, looked up): as the sequence (P10721 whole entry V559D, looked up) above, with V654A counted along it
Chain of TGFBR2 (human) (P37173 whole entry, looked up): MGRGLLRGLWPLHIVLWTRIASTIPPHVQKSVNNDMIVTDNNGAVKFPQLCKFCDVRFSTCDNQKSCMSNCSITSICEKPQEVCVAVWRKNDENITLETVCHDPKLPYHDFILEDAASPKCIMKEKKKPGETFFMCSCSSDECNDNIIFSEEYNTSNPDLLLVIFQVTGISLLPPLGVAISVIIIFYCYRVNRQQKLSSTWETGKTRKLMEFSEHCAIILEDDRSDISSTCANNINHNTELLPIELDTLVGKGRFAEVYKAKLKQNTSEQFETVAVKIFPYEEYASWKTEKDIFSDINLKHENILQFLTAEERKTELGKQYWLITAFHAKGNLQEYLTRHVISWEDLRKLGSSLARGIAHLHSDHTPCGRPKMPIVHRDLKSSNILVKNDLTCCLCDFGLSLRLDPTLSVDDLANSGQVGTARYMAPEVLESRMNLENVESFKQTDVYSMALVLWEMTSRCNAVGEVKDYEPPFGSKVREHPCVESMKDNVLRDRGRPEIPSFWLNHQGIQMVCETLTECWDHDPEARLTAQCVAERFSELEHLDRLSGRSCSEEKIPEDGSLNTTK

For COc1cc(N2CCC(O)CC2)ccc1Nc1ncc2c(n1)N1CCc3cccc(c31)C(=O)N2C, the kinase still bound, per cent of control (PIM1 (human)) was 91%, the kinase still bound, per cent of control (TLK1 (human)) was 91% and the kinase still bound, per cent of control (TGFBR2 (human)) was 100%. It also gave a kinase still bound, per cent of control [1] of 100%, a kinase still bound, per cent of control (SRPK3 (human)) of 89% and a kinase still bound, per cent of control (MYLK3 (human)) of 100%. It also gave a kinase still bound, per cent of control (MAP2K3 (human)) of 92%, a kinase still bound, per cent of control (BMP2K (human)) of 84% and a kinase still bound, per cent of control (MKNK2 (human)) of 32%. The kinase still bound, per cent of control (TTK (human)) was 6.1%, the kinase still bound, per cent of control (BMPR1B (human)) was 88% and the kinase still bound, per cent of control (STK11 (human)) was 91%. For the same compound, the kinase still bound, per cent of control (MAPK15 (human)) was 100%, the kinase still bound, per cent of control (MAP4K2 (human)) was 94% and the kinase still bound, per cent of control (PHKG2 (human)) was 68%. The kinase still bound, per cent of control (CSNK2A1 (human)) was 100%, the kinase still bound, per cent of control (CLK4 (human)) was 70% and the kinase still bound, per cent of control (RIOK3 (human)) was 92%. For the same compound, the kinase still bound, per cent of control (MKNK1 (human)) was 48%, the kinase still bound, per cent of control (DCLK3 (human)) was 84% and the kinase still bound, per cent of control (RPS6KA4 KD2 (human)) was 17%. The kinase still bound, per cent of control (MELK (human)) was 78%, the kinase still bound, per cent of control [2] was 93% and the kinase still bound, per cent of control (NEK2 (human)) was 62%. It also gave a kinase still bound, per cent of control (FLT3 (human)) of 95%, a kinase still bound, per cent of control (ACVR1 (human)) of 95% and a kinase still bound, per cent of control (SRPK2 (human)) of 100%. It also gave a kinase still bound, per cent of control (AURKB (human)) of 100%, a kinase still bound, per cent of control (MAPK8 (human)) of 68% and a kinase still bound, per cent of control (STK24 (human)) of 84%. The kinase still bound, per cent of control (TNIK (human)) was 48%, the kinase still bound, per cent of control (PIM2 (human)) was 100% and the kinase still bound, per cent of control (CSNK2A2 (human)) was 67%. The kinase still bound, per cent of control (CIT (human)) was 10%, the kinase still bound, per cent of control (RIOK2 (human)) was 100% and the kinase still bound, per cent of control (CDK7 (human)) was 83%. It also gave a kinase still bound, per cent of control (KIT (human)) of 91%, a kinase still bound, per cent of control [3] of 100% and a kinase still bound, per cent of control (ACVR2A (human)) of 100%. The kinase still bound, per cent of control (GAK (human)) was 12%, the kinase still bound, per cent of control (DAPK1 (human)) was 44% and the kinase still bound, per cent of control (TAOK3 (human)) was 70%.

In the case of COc1cc(N2CCN(C)CC2)ccc1Nc1ncc2c(n1)N(C)c1ccccc1N(C)C2=O, the kinase still bound, per cent of control (PIM1 (human)) is reported as 91%, the kinase still bound, per cent of control (TLK1 (human)) is reported as 97% and the kinase still bound, per cent of control (TGFBR2 (human)) is reported as 98%. It also gave a kinase still bound, per cent of control [1] of 100%, a kinase still bound, per cent of control (SRPK3 (human)) of 68% and a kinase still bound, per cent of control (MYLK3 (human)) of 100%. For the same compound, the kinase still bound, per cent of control (MAP2K3 (human)) was 92%, the kinase still bound, per cent of control (BMP2K (human)) was 100% and the kinase still bound, per cent of control (MKNK2 (human)) was 0.55%. The kinase still bound, per cent of control (TTK (human)) was 95%, the kinase still bound, per cent of control (BMPR1B (human)) was 100% and the kinase still bound, per cent of control (STK11 (human)) was 100%. It also gave a kinase still bound, per cent of control (MAPK15 (human)) of 100%, a kinase still bound, per cent of control (MAP4K2 (human)) of 100% and a kinase still bound, per cent of control (PHKG2 (human)) of 15%. For the same compound, the kinase still bound, per cent of control (CSNK2A1 (human)) was 88%, the kinase still bound, per cent of control (CLK4 (human)) was 99% and the kinase still bound, per cent of control (RIOK3 (human)) was 77%. For the same compound, the kinase still bound, per cent of control (MKNK1 (human)) was 100%, the kinase still bound, per cent of control (DCLK3 (human)) was 100% and the kinase still bound, per cent of control (RPS6KA4 KD2 (human)) was 88%. For the same compound, the kinase still bound, per cent of control (MELK (human)) was 80%, the kinase still bound, per cent of control [2] was 95% and the kinase still bound, per cent of control (NEK2 (human)) was 96%. For the same compound, the kinase still bound, per cent of control (FLT3 (human)) was 96%, the kinase still bound, per cent of control (ACVR1 (human)) was 100% and the kinase still bound, per cent of control (SRPK2 (human)) was 100%. The kinase still bound, per cent of control (AURKB (human)) was 100%, the kinase still bound, per cent of control (MAPK8 (human)) was 86% and the kinase still bound, per cent of control (STK24 (human)) was 100%. It also gave a kinase still bound, per cent of control (TNIK (human)) of 90%, a kinase still bound, per cent of control (PIM2 (human)) of 100% and a kinase still bound, per cent of control (CSNK2A2 (human)) of 88%. For the same compound, the kinase still bound, per cent of control (CIT (human)) was 95%, the kinase still bound, per cent of control (RIOK2 (human)) was 50% and the kinase still bound, per cent of control (CDK7 (human)) was 100%. The kinase still bound, per cent of control (KIT (human)) was 100%, the kinase still bound, per cent of control [3] was 100% and the kinase still bound, per cent of control (ACVR2A (human)) was 92%. The kinase still bound, per cent of control (GAK (human)) was 45%, the kinase still bound, per cent of control (DAPK1 (human)) was 82% and the kinase still bound, per cent of control (TAOK3 (human)) was 67%.
